In patent US20230091671A1 (priority 2020, published 2023):
Where a name gives a salt, the structure may show the parent alone.

What was measured:
[1] = cited from earlier work
[2] = cited from earlier work; remark: listed apart in the source
[3] = in vivo; cited from earlier work
α1-AR 1D = target: T1, α1-AR 1D (Homo sapiens, UniProt P25100); format: binding
T1 construct: expressed in transfected cells; host or cells: HEK-293
T1 sequence (P25100 1-572): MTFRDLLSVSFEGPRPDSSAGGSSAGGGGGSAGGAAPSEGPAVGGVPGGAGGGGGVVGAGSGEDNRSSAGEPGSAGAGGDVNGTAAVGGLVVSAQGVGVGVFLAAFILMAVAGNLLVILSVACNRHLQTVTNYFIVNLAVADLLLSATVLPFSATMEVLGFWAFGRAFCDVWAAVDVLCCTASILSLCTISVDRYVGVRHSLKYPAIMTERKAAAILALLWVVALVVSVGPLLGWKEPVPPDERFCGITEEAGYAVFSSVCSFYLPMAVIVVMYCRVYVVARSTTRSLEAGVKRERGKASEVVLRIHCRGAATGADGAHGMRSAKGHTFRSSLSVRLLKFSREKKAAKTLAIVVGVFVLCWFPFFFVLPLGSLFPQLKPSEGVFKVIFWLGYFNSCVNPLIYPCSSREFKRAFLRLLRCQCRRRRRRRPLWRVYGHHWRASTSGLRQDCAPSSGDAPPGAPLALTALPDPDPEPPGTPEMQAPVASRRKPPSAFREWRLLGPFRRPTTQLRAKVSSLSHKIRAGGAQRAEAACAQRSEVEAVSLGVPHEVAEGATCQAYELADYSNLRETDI

[4] = target: T2, 1A subtype (α-1 adrenergic receptor) (Homo sapiens, UniProt P35348); details: cited from earlier work
T2 sequence (P35348 1-466): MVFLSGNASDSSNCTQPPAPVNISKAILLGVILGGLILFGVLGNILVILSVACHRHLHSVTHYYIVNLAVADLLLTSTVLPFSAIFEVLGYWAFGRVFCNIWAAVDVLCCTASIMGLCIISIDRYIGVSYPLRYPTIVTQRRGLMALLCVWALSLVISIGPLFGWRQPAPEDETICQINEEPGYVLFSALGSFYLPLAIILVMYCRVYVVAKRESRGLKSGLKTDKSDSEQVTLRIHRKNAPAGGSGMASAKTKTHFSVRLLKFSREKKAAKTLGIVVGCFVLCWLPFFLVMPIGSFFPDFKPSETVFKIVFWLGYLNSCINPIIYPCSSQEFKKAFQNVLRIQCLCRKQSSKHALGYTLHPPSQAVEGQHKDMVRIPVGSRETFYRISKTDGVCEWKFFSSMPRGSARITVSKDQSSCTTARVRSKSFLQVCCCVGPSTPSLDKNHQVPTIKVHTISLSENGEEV

[5] = tested on: VC and laryngeal muscles/laryngospasm; details: rat model; cited from earlier work
[6] = recommended single intravenous injection
[7] = single intramuscular and intravenous doses
[8] = subcutaneous injection of 10 mg

COc1cc2nc(N(C)CCCNC(=O)C3CCCO3)nc(N)c2cc1OC.Cl (racemic) [ALFUZOSIN, (R,S)-N-[3-[(4-amino-6,7-dimethoxy-2-quinazolinyl)methylamino]propyl]tetrahydro-2-furancarboxamide hydrochloride]
dizziness ([1]; clinical test subjects): 6%
hypotension ([1]; clinical test subjects): 0.4%
syncope ([1]; clinical test subjects): 0.2%

COc1cc2nc(N3CCN(C(=O)C4CCCO4)CC3)nc(N)c2cc1OC.Cl (racemic) [TERAZOSIN, (RS)-Piperazine,1-(4-amino-6,7-dimethoxy-2-quinazolinyl)-4-[(tetra-hydro-2-furanyl)carbonyl]-, monohydrochloride, dihydrate]
syncope ([1]; clinical test subjects): 0.6%
postural hypotension ([1]; trial of 600 subjects): 4%

CCN1CC(CCN2CCOCC2)C(c2ccccc2)(c2ccccc2)C1=O (stereo not drawn) [Doxapram hydrochloride, 1-ethyl-4-[2-(4-morpholinyl)ethyl]-3,3-diphenyl-2-pyrrolidinone monohydrochloride, monohydrate]
duration of effect [2, 6]: 5 to 12 min
onset of respiratory stimulation [2, 6]: 20 to 40 s
time of peak effect [2, 6]: 1 to 2 min

O=C(CCCN1CC=C(n2c(=O)[nH]c3ccccc32)CC1)c1ccc(F)cc1 [Droperidol, 1-[1-[3-(p-Fluorobenzoyl)propyl]-1,2,3,6-tetrahydro-4-pyridyl]-2-benzimidazolinone]
duration of the tranquilizing and sedative effects ([2]; human, in vivo): two to four hours
persistence of alteration of alertness ([2]; human, in vivo): as long as twelve hours
onset of action [2, 7]: three to ten minutes
time until peak effect apparent [2, 7]: up to thirty minutes

CCC(=O)C(CC(C)N(C)C)(c1ccccc1)c1ccccc1 (stereo not drawn) [Methadone]
metabolism (enzymes / pathway) [3]: CYP3A4, CYP2B6 and CYP2D6

NC[C@H](O)c1ccc(O)c(O)c1 [NE]
affinity and potency at α1-AR 1D compared with other subtypes (α1-AR 1D): highest affinity and potency

CN1CCC[C@H]1c1cccnc1 [Nicotine]
crossing of the blood brain barrier [3]: crosses the blood-brain barrier
elimination half-life in the body [3]: around two hours
half-life [3]: 1 to 2 h
route of excretion [3]: primarily excreted in urine
time to reach the brain after inhalation [3]: 10 to 20 s

COc1cc2nc(N3CCN(C(=O)c4ccco4)CC3)nc(N)c2cc1OC.Cl [PRAZOSIN, 1-(4-amino-6,7-dimethoxy-2-quinazolinyl)-4-(2-furoyl) piperazine]
Syncope and symptoms of hypotension, share of subjects receiving ([1]; 1 mg BID/TID titrated up to 20 mg total QD): 6-12%

C[C@H](Cc1cc2c(c(C(N)=O)c1)N(CCCO)CC2)NCCOc1ccccc1OCC(F)(F)F [SILODOSIN, (3-Hydroxypropyl)-5-[(2R)-2-({2-[2-(2,2,2trifluoroethoxy)phenoxy]ethyl}amino)propyl]-2,3-dihydro-1H-indole-7-carboxamide]
Dizziness and orthostatic hypotension ([1]; Study of 897 subjects, 8 mg QD): 3%
subjects with syncope / subjects in study ([1]; Study of 897 subjects, 8 mg QD): 1/897

CCOc1ccccc1OCCN[C@H](C)Cc1ccc(OC)c(S(N)(=O)=O)c1 [TAMSULOSIN, (-)-(R)-5-[2-[[2-(o-Ethoxyphenoxy)ethyl]amino]propyl]-2-methoxybenzenesulfon-amide, monohydrochloride]
greater binding affinity at the 1A subtype over other α-1 antagonists [4]: 12-30 times
incidence of hypotension, syncope, vertigo ([1]; Dose (0.4-0.8 mg QD)): 0.2%-0.6%

C=CCN1CC[C@]23c4c5ccc(O)c4O[C@H]2C(=O)CC[C@@]3(O)[C@H]1C5.Cl [naloxone, 17-Allyl-4,5α-epoxy-3,14-dihydroxymorphinan-6-one hydrochloride]
dose at which naloxone has an effect [5]: > 0.8 mg/kg

CC[C@@H]1C(=O)OC[C@@H]1Cc1cncn1C [pilocarpine HCl]
salivation [2, 8]: 1 L
sweating [2, 8]: 0.5 to 1.0 L
